Measurements as given in patent US9801901B2, “Alginate oligomers for use in overcoming multidrug resistance in bacteria” (priority 2009, dated 2017).
≈ marks a conversion by molar mass, not a printed value. Like-named read-outs stand apart in the source and are kept apart here. Marks after values point to notes of the source that are not given here.

Experiments:
[1] = system: PA01 Pseudomonas aeruginosa ATCC 15692; experiment: MIC assay, two-fold antibiotic dilutions in CAMHB with alginate oligomer, no visible growth; assay type: cell-based; conditions: Pseudomonas aeruginosa, ATCC15692, Table 1, PA01, read-out: MIC
[2] = system: Pseudomonas aeruginosa ATCC 39324, mucoid type strain (R79); experiment: MIC assay, CAMHB with alginate oligomer, no visible growth; assay type: cell-based; conditions: Pseudomonas aeruginosa, ATCC39324, Table 1, R79, read-out: MIC
[3] = system: Pseudomonas aeruginosa MDR R22 from China (V1); experiment: as above; assay type: cell-based; conditions: Pseudomonas aeruginosa, Table 1, V1 MDR R22 PA, read-out: MIC
Text: The study described in Example 1 was repeated with the following strains of bacteria and antibiotics as detailed in Tables 4, 5 and 6.

[4] = system: Pseudomonas aeruginosa MDR 301 from Poland (V2); experiment: as above; assay type: cell-based; conditions: Pseudomonas aeruginosa, Table 1, V2 MDR 301 PA, read-out: MIC
[5] = system: V9 (Egypt) Acinetobacter baumannii; experiment: as above; assay type: cell-based; conditions: Table 5, V9 MDR Acin. baum
[6] = system: V11 5702 (Wales) E. coli; experiment: as above; assay type: cell-based; conditions: Table 5, V11 MDR E.coli
[7] = system: V12 5725 (Wales) Klebsiella pneumoniae; experiment: as above; assay type: cell-based; conditions: Table 5, V12 MDR Kleb pneu
[8] = system: V22 6056 Acinetobacter; experiment: as above; assay type: cell-based, Acinetobacter lwoffii; conditions: Table 5, V22 MDR Acin. lwoff
[9] = system: strains of Klebsiella pneumoniae displaying MDR phenotypes; experiment: MIC-assay, Mueller-Hinton broth with G-block alginate, 384-well, OD600 (Table 10); assay type: cell-based
Text: Minimum inhibitory concentration (MICs) of different antibiotics for strains of Klebsiella pneumoniae displaying MDR phenotypes in the presence of varying concentrations of OligoCF-5/20 (0-10%). (MIC values are expressed in μg ml^−1).

[10] = system: MDR Providencia stuartii; experiment: MIC-assay, Mueller-Hinton broth with G-block alginate, 384-well, OD600 (Table 11); assay type: cell-based; conditions: Providencia stuartii (IR57 India, V7) MDR
Text: (§1) Minimum inhibitory concentration (MICs) of different antibiotics for strains of E. coli and Providencia stuartii displaying MDR phenotypes in the presence of varying concentrations of OligoCF-5/20 (0-10%). (MIC values are expressed in μg ml^−1).

[11] = system: strains of E. coli displaying MDR phenotypes; experiment: as above; assay type: cell-based; conditions: Escherichia coli, Escherichia coli (5702, Wales, V11) MDR
Text: as §1

[12] = system: Pseudomonas aeruginosa (MDR 301, PSA, V2); experiment: MIC-assay, Mueller-Hinton broth with G-block alginate, 384-well, OD600; conditions: Pseudomonas aeruginosa, Table 8; V2; G-block (OligoCF-5/20) 10%
[13] = system: Burkholderia cepacia (1322, V23); experiment: as above
[14] = system: Burkholderia cepacia (LMG18941, ATCC-BAA-246); experiment: as above
[15] = system: Acinetobacter lwoffii (6056, V22); experiment: as above
[16] = system: Acinetobacter baumannii (Egypt, V9); experiment: as above
[17] = system: Acinetobacter lwoffii (Egypt, V10); experiment: as above
[18] = Table 9, G-block (OligoCF-5/20) 0%
[19] = Table 9, G-block (OligoCF-5/20) 2%
[20] = Table 9, G-block (OligoCF-5/20) 6%
[21] = Table 9, G-block (OligoCF-5/20) 10%

C[C@H]1[C@H](NC(=O)/C(=N\OC(C)(C)C(=O)O)c2csc(N)n2)C(=O)N1S(=O)(=O)O [Aztreonam] showed an MIC ([1]; OligoCF-5/20 0G) of 8 µg/mL (≈ 18.4 µM), an MIC ([1]; OligoCF-5/20 +2% G) of 16 µg/mL (≈ 36.7 µM) and an MIC ([1]; OligoCF-5/20 +6% G) of 4 µg/mL (≈ 9.19 µM). The MIC ([1]; OligoCF-5/20 +10% G) was 2 µg/mL (≈ 4.59 µM), the MIC ([2]; OligoCF-5/20 0G) was 2 µg/mL (≈ 4.59 µM) and the MIC ([2]; OligoCF-5/20 +2% G) was 2 µg/mL (≈ 4.59 µM). The MIC ([2]; OligoCF-5/20 +6% G) was less than 1 µg/mL, the MIC ([2]; OligoCF-5/20 +10% G) was less than 1 µg/mL and the MIC ([3]; OligoCF-5/20 0G) was 32 µg/mL (≈ 73.5 µM). The MIC ([3]; OligoCF-5/20 +2% G) was 16 µg/mL (≈ 36.7 µM), the MIC ([3]; OligoCF-5/20 +6% G) was less than 4 µg/mL and the MIC ([3]; OligoCF-5/20 +10% G) was less than 4 µg/mL. The MIC ([4]; OligoCF-5/20 0G) was 64 µg/mL (≈ 147 µM), the MIC ([4]; OligoCF-5/20 +2% G) was 16 µg/mL (≈ 36.7 µM) and the MIC ([4]; OligoCF-5/20 +6% G) was 8 µg/mL (≈ 18.4 µM). The MIC ([4]; OligoCF-5/20 +10% G) was 8 µg/mL (≈ 18.4 µM), the MIC ([5]; Acinetobacter baumannii, OligoCF-5/20 0G, read-out: MIC) was greater than 512 µg/mL and the MIC ([5]; OligoCF-5/20 +2% G) was 512^† μg/ml. The MIC ([5]; OligoCF-5/20 +6% G) was 256^† μg/ml, the MIC ([5]; OligoCF-5/20 +10% G) was 128^† μg/ml and the MIC ([6]; Escherichia coli, OligoCF-5/20 0G, read-out: MIC) was 256 µg/mL (≈ 588 µM). It also gave an MIC ([6]; OligoCF-5/20 +2% G) of 256 µg/mL (≈ 588 µM), an MIC ([6]; OligoCF-5/20 +6% G) of 256 µg/mL (≈ 588 µM) and an MIC ([6]; OligoCF-5/20 +10% G) of 256 µg/mL (≈ 588 µM). For the same compound, the MIC ([7]; Klebsiella pneumoniae, OligoCF-5/20 0G, read-out: MIC) was 256 µg/mL (≈ 588 µM), the MIC ([7]; OligoCF-5/20 +2% G) was 512^‡ μg/ml and the MIC ([7]; OligoCF-5/20 +6% G) was 128^† μg/ml. The MIC ([7]; OligoCF-5/20 +10% G) was 64^† μg/ml, the MIC ([8]; Acinetobacter, OligoCF-5/20 0G, read-out: MIC) was 256 µg/mL (≈ 588 µM) and the MIC ([8]; OligoCF-5/20 +2% G) was 128^† μg/ml. For the same compound, the MIC ([8]; OligoCF-5/20 +6% G) was 64^† μg/ml, the MIC ([8]; OligoCF-5/20 +10% G) was 32^† μg/ml and the MIC ([9]; Klebsiella pneumoniae (5712, Wales, V12) MDR, G-block (OligoCF-5/20) 0%, read-out: MIC) was 4 µg/mL (≈ 9.19 µM). For the same compound, the MIC ([9]; Klebsiella pneumoniae (5712, Wales, V12) MDR, G-block (OligoCF-5/20) 2%, read-out: MIC) was 4 µg/mL (≈ 9.19 µM), the MIC ([9]; Klebsiella pneumoniae (5712, Wales, V12) MDR, G-block (OligoCF-5/20) 6%, read-out: MIC) was 4 µg/mL (≈ 9.19 µM) and the MIC ([9]; Klebsiella pneumoniae (5712, Wales, V12) MDR, G-block (OligoCF-5/20) 10%, read-out: MIC) was 4 µg/mL (≈ 9.19 µM). The MIC ([9]; Klebsiella pneumoniae (IR25, India, V6) MDR, G-block (OligoCF-5/20) 2%, read-out: MIC) was 256 µg/mL (≈ 588 µM), the MIC ([9]; Klebsiella pneumoniae (IR25, India, V6) MDR, G-block (OligoCF-5/20) 6%) was 128 µg/mL (≈ 294 µM) and the MIC ([9]; Klebsiella pneumoniae (IR25, India, V6) MDR, G-block (OligoCF-5/20) 10%, read-out: MIC) was 64 µg/mL (≈ 147 µM). It also gave an MIC ([9]; Klebsiella pneumoniae (K3, India, V8) MDR, G-block (OligoCF-5/20) 2%, read-out: MIC) of 256 µg/mL (≈ 588 µM), an MIC ([9]; Klebsiella pneumoniae (K3, India, V8) MDR, G-block (OligoCF-5/20) 6%) of 128 µg/mL (≈ 294 µM) and an MIC ([9]; Klebsiella pneumoniae (K3, India, V8) MDR, G-block (OligoCF-5/20) 10%) of 128 µg/mL (≈ 294 µM). For the same compound, the MIC ([10]; G-block (OligoCF-5/20) 0%) was greater than 1020 µg/mL, the MIC ([10]; G-block (OligoCF-5/20) 2%) was greater than 1020 µg/mL and the MIC ([10]; G-block (OligoCF-5/20) 6%) was greater than 1020 µg/mL. The MIC ([10]; G-block (OligoCF-5/20) 10%) was greater than 1020 µg/mL, the MIC ([11]; G-block (OligoCF-5/20) 0%, read-out: MIC) was 256 µg/mL (≈ 588 µM) and the MIC ([11]; G-block (OligoCF-5/20) 2%, read-out: MIC) was 256 µg/mL (≈ 588 µM). The MIC ([11]; G-block (OligoCF-5/20) 6%) was 128 µg/mL (≈ 294 µM), the MIC ([11]; G-block (OligoCF-5/20) 10%, read-out: MIC) was 64 µg/mL (≈ 147 µM) and the MIC [12] was 0.0625 µg/mL (≈ 0.144 µM). It also gave an MIC ([13]; Table 8, G-block (OligoCF-5/20) 0%) greater than 16 µg/mL, an MIC ([13]; Table 8, G-block (OligoCF-5/20) 2%) greater than 16 µg/mL and an MIC ([13]; Table 8, G-block (OligoCF-5/20) 6%) greater than 16 µg/mL. It also gave an MIC ([13]; Table 8, G-block (OligoCF-5/20) 10%) greater than 16 µg/mL, an MIC ([14]; ATCCBAA246|LMG18941, Table 8, G-block (OligoCF-5/20) 0%) greater than 16 µg/mL and an MIC ([14]; ATCCBAA246|LMG18941, Table 8, G-block (OligoCF-5/20) 2%) greater than 16 µg/mL. For the same compound, the MIC ([14]; ATCCBAA246|LMG18941, Table 8, G-block (OligoCF-5/20) 6%) was greater than 16 µg/mL, the MIC ([14]; ATCCBAA246|LMG18941, Table 8, G-block (OligoCF-5/20) 10%) was greater than 16 µg/mL and the MIC [15, 18] was 64 µg/mL (≈ 147 µM). It also gave an MIC [15, 19] of 32 µg/mL (≈ 73.5 µM), an MIC [15, 20] of 16 µg/mL (≈ 36.7 µM) and an MIC [15, 21] of 4 µg/mL (≈ 9.19 µM). For the same compound, the MIC [16, 18] was greater than 16 µg/mL, the MIC [16, 19] was greater than 16 µg/mL and the MIC [16, 20] was greater than 16 µg/mL. It also gave an MIC [16, 21] greater than 16 µg/mL, an MIC [17, 18] of 8 µg/mL (≈ 18.4 µM) and an MIC [17, 19] of 4 µg/mL (≈ 9.19 µM). The MIC [17, 20] was 2 µg/mL (≈ 4.59 µM) and the MIC [17, 21] was 1 µg/mL (≈ 2.3 µM).
